From US8846627B2, “Method for treatment of malaria” (The Second Military Medical University, priority 2009, dated 2014)

Target: T1, Falcipain-2 protease (FP-2) (Plasmodium falciparum, UniProt Q8I6U4)
T1 construct: The falcipain-2 fragment was amplified by the polymerase chain reaction (PCR); His6 (N-terminal MRGS-His6 supplied by the pQE-30 vector; own knowledge of the vector, consistent with the Ni2+-NTA purification) (N); made in house; host or cells: E. coli M15
T1 sequence (Q8I6U4 244-484): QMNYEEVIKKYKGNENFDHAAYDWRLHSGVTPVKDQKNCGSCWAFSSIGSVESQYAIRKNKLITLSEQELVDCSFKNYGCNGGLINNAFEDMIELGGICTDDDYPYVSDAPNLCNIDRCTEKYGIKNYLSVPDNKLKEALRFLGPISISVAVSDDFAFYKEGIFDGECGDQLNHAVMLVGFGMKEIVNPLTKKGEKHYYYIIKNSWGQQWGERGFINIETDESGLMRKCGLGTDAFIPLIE
Assay: SPR (Biacore 3000) binding assay with immobilised FP-2 protein
Settings: SPR screening at 1 μM and 10 μM
From the text: The screening and kinetics determination of the falcipain-2 protease and tiliroside binding activity are based on SPR mechanism, which employs Biacore 3000 (Biacore AB, Uppsala, Sweden).
(1) The Construction of Falcipain-2 Plasmid (pQE30-Fal2)
Primers were designed according to the falcipain-2 cDNA sequence, utilizing the following primers, forward 5′[…]3′(SEQ ID NO. 1) and reverse 5′[…]3′ (SEQ ID NO. 2), which including two restriction sites, BamH I and SaI I The falcipain-2 fragment was amplified by the polymerase chain reaction (PCR), and the PCR product was ligated into the pQE-30 expression vector and then further verified by sequencing. This construct was transformed into E. coil M15 (Qiagen).
(2) Expression and Purification of Falcipain-2 Protein
The engineering bacteria were obtained by transforming constructed plasmid pQE30-Fal2 into the E. coli M15 cells. They were culturing in LB medium (10 g/L tryptone, 5 g/L yeast extract, 10 g/L sedium chloride) containing ampicillin […] and kanamtcin […] for overnight. Then, transfer the bacteria into fresh LB medium (1 L) containing ampicillin and kanamycin (according to 1:100) at 37° C., 220 rpm. […] Bound protein was eluted with 8M urea, 20 mM Tris-Cl, 1M imidazole, pH 8.0, and the eluted protein was analyzed by SDS-PAGE. […]

**Q.** Which “binding activity with FP-2 protein” value does the source give for `O=C(/C=C/c1ccc(O)cc1)OC[C@H]1O[C@@H](Oc2c(-c3ccc(O)cc3)oc3cc(O)cc(O)c3c2=O)[C@H](O)[C@@H](O)[C@@H]1O` [Tiliroside] here?
**A.** The value was “obvious binding activity”.
